Data on one compound can be found in patent publication US20130303562A1, “CHEMICAL AND RNAI SUPPRESSORS OF NEUROTOXICITY IN HUNTINGTON'S DISEASE” (priority 2010, published 2013).

The subject of assay [1] is HD larvae (Elav^c155-GAL4; UAS-Htt-Q138/+). The assay is described as follows: In vivo rescue: viability of HD larvae after 5-day drug dosing in liquid culture. As to conditions: larvae reared in liquid culture, 5-day dosing, compared to DMSO-treated controls. On the set-up: species or system Drosophila. The procedure: In vivo Rescue studies: For small molecule in vivo rescue studies, Elav^c155; UAS-Htt-Q138-mRFP^1, UAS-mCD8-GFP/+1st instar larvae were collected en-masse and dispensed into liquid yeast media (10 larvae/well) containing therapeutic agents at three different concentrations as described in the results (n=8 replicas/concentration). Cultures were reared at 21° C. and larval viability was assessed after 5 days and the mean number of living Htt138Q larvae (i.e. GFP^+, Htt138QmRFP^+, and mobile) was tabulated, and expressed as a percentage of total larvae/well. For genetic rescue studies with lkb1, two Htt138Q strains were utilized: a strong expressing line, UAS-Htt138QmRFP^1 which is pharate lethal when crossed to Elav^c155, and a weaker expressing line, UAS-Htt138QmRFP^2 which survives to adulthood and is viable for a number of weeks. Using the strong line, pharate lethality at 25° C. was calculated after lkb1 (lkb1^4B1-11 and lkb1^4A4-2 alleles) was introduced into an Elav^c155, UAS-Htt/+background. Lkb1^4B1-11 is a premature truncation allele (Q98>Stop), and lkb1^4A4-2 is an EMS null allele (589 b.p. deletion removing 150 b.p. of the 5′ UTR, the start codon and the beginning of the open reading frame). For Top1 in vivo analysis, Elav^c155, Top^112 recombinants were generated and crossed to UAS-Htt138QmRFP^1.
To further examine the RNAi/small molecule screen hits, we assayed in vivo efficacy by testing their ability to rescue lethality in our Drosophila HD model. […] Specific inhibitors of Lkb1 were not available for in vivo testing.

The test system of assay [2] is subject carrying a polyQ tract expansion mutation in the Huntingtin gene. The assay can be described thus: Carbenoxolone in pre-symptomatic HD patients. In kind it is in vivo, human. Conditions: administered before clinical symptoms manifest, from about 150 mg/day. The procedure:
After a period of time sufficient for a change in a cortisol level to manifest, e.g. after about a week, about two weeks, about three weeks, or about a month, the cortisol level in the subject is measured. […] For example, in some embodiments, the dose may be increased from about 150 mg/day to about 300 mg/day. In some embodiments, the cortisol level in the subject is measured again after dose adjustment and, if the cortisol level remains elevated, the dose is increased further. For example, in some embodiments, the dose may be increased from about 300 mg/day to about 450 mg/day. In some embodiments, multiple cycles of dose adjustment and cortisol level measurement are performed until a desired cortisol level is observed in the subject, for example, a blood plasma cortisol level within the range of 70-700 nmol/l or 70-350 nmol/l. For example, in some embodiments, the dose may be increased from about 150 mg/day to about 300 mg/day in a first dose adjustment, then to about 450 mg/day, then to about 500 mg/day, then to about 600 mg/day. […] In some cases, the dosage may be decreased below 150 mg/day, particularly, where a desired reduction in a cortisol level is still observed with lower doses. […]

Assay [3] deals with subject having or suspected of having the polyQ tract expansion disease HD. The assay can be described thus: Oral carbenoxolone in subjects having or suspected of having HD. As to conditions: about 100-700 mg/day. In kind it is in vivo, human. The procedure:
The carbenoxolone is administered orally in tablet form, for example, as carbenoxolone disodium salt. The dosage is within the range of about 100-700 mg/day, for example at about 150 mg/day, about 300 mg/day, or about 600 mg/day. […] Such monitoring includes measuring cognitive and motor function in the subject, and/or determining whether a slowing or reversal of a personality change commonly associated with HD is observable. In some instances, the monitoring includes measuring the aggregation of Htt protein, the number or size of inclusion bodies, and/or brain tissue homeostasis (e.g. detection of improved survival of neuronal cells and/or reduction in astrocytes). […] After a period of time sufficient for a desired change, e.g. an amelioration in an HD symptom, to manifest, the subject is then monitored for such a change. For example, the subject, in some embodiments, is monitored for cognitive function, for example, within a time frame of about a week to about 6 months (e.g., about one month or about two months) after administration is commenced. […] For example, in some embodiments, the dose may be increased from about 150 mg/day to about 300 mg/day. In some embodiments, the subject is monitored again for symptoms after dose adjustment and, if the symptoms persist at the same severity level, the dose is increased further. […]

Regarding `CC1(C)[C@@H](OC(=O)CCC(=O)O)CC[C@]2(C)[C@H]3C(=O)C=C4[C@@H]5C[C@@](C)(C(=O)O)CC[C@]5(C)CC[C@@]4(C)[C@]3(C)CC[C@@H]12` [Carbenoxolone], the “Viability of Htt-Q138 expressing larvae / rescue of Htt-Q138 lethality” value in assay [1] is “comparable activity”; in assay [1] (listed as carbenoxolone), “rescue HD toxicity in vivo”. Also, the “Onset and severity of HD symptoms” value in assay [2] is reported as “prevention or delay of the onset, and/or an amelioration of the severity of at least one HD symptom”. The “HD symptoms (cognition, motor function, personality change)” value in assay [3] is recorded as “improvement of at least some HD symptoms”.
